Measured values from ChEMBL document CHEMBL5335775, “Bioisosteric replacement of 1H-1,2,3-triazole with 1H-tetrazole ring enhances anti-leukemic activity of (5-benzylthiazol-2-yl)benzamides” (Eur J Med Chem, 2023).
Active and inactive are the calls of the source. No cut-off for these calls is given here.

What was measured:
K562 [1] = test: Anticancer activity against human K562 cells assessed as cell growth at 10^-5 M incubated for 48 hrs by SRB assay relative to control; assay type: functional; details: K562, 48 h, dose 1 10^-5M, read-out: Activity
NCI-H460 [2] = test: Anticancer activity against human NCI-H460 cells assessed as cell growth at 10^-5 M incubated for 48 hrs by SRB assay relative to control; assay type: functional; details: NCI-H460, 48 h, dose 1 10^-5M, read-out: Activity
LOX IMVI [3] = test: Anticancer activity against human LOX IMVI cells assessed as cell growth at 10^-5 M incubated for 48 hrs by SRB assay relative to control; assay type: functional; details: dose 1 10^-5M, read-out: Activity
M14 [4] = test: Anticancer activity against human M14 cells assessed as cell growth at 10^-5 M incubated for 48 hrs by SRB assay relative to control; assay type: functional; details: M14, 48 h, dose 1 10^-5M, read-out: Activity
UACC-62 [5] = test: Anticancer activity against human UACC-62 cells assessed as cell growth at 10^-5 M incubated for 48 hrs by SRB assay relative to control; assay type: functional; details: UACC-62, 48 h, dose 1 10^-5M, read-out: Activity
MCF7 = test: Anticancer activity against human MCF7 cells assessed as cell growth at 10^-5 M incubated for 48 hrs by SRB assay relative to control; assay type: functional; details: MCF7, 48 h, dose 1 10^-5M, read-out: Activity
NCI-H522 = test: Anticancer activity against human NCI-H522 cells assessed as cell growth at 10^-5 M incubated for 48 hrs by SRB assay relative to control; assay type: functional; details: NCI-H522, 48 h, dose 1 10^-5M, read-out: Activity
SF-295 = test: Anticancer activity against human SF-295 cells assessed as cell growth at 10^-5 M incubated for 48 hrs by SRB assay relative to control; assay type: functional; details: SF-295, 48 h, dose 1 10^-5M, read-out: Activity
SK-MEL-5 = test: Anticancer activity against human SK-MEL-5 cells assessed as cell growth at 10^-5 M incubated for 48 hrs by SRB assay relative to control; assay type: functional; details: SK-MEL-5, 48 h, dose 1 10^-5M, read-out: Activity
UACC-257 = test: Anticancer activity against human UACC-257 cells assessed as cell growth at 10^-5 M incubated for 48 hrs by SRB assay relative to control; assay type: functional; details: UACC-257, 48 h, dose 1 10^-5M, read-out: Activity
T47D [6] = test: Anticancer activity against human T47D cells assessed as cell growth at 10^-5 M incubated for 48 hrs by SRB assay relative to control; assay type: functional; details: dose 1 10^-5M, read-out: Activity
K562 [7] = test: Antiproliferative activity against human K562 cells assessed as inhibition of cell proliferation measured after 72 hrs by MTT assay; assay type: functional, cell-based; details: K562, 72 h
[8] = Antiproliferative activity against human HaCaT cells assessed as inhibition of cell proliferation measured after 72 hrs by MTT assay; assay type: toxicity, cell-based
[9] = Antiproliferative activity against NIH3T3 cells assessed as inhibition of cell proliferation measured after 72 hrs by MTT assay; assay type: toxicity, cell-based; details: mouse
[10] = Antiproliferative activity against J774.2 cells assessed as inhibition of cell proliferation measured after 72 hrs by MTT assay; assay type: toxicity, cell-based; details: mouse
[11] = Selectivity index, ratio of IC50 for […] to IC50 for human K562 cells; assay type: functional
K562 [12] = test: Inhibition of cell growth in human K562 cells incubated for 48 hrs by SRB assay; assay type: functional, cell-based; details: K562, 48 h
NCI-H460 [13] = test: Inhibition of cell growth in human NCI-H460 cells incubated for 48 hrs by SRB assay; assay type: functional, cell-based; details: NCI-H460, 48 h
HCT-15 = test: Inhibition of cell growth in human HCT-15 cells incubated for 48 hrs by SRB assay; assay type: functional, cell-based; details: HCT-15, 48 h
KM12 = test: Inhibition of cell growth in human KM12 cells incubated for 48 hrs by SRB assay; assay type: functional, cell-based; details: KM12, 48 h
SW-620 = test: Inhibition of cell growth in human SW-620 cells incubated for 48 hrs by SRB assay; assay type: functional, cell-based; details: SW-620, 48 h
LOX IMVI [14] = test: Inhibition of cell growth in human LOX IMVI cells incubated for 48 hrs by SRB assay; assay type: functional, cell-based
M14 [15] = test: Inhibition of cell growth in human M14 cells incubated for 48 hrs by SRB assay; assay type: functional, cell-based; details: M14, 48 h
UACC-62 [16] = test: Inhibition of cell growth in human UACC-62 cells incubated for 48 hrs by SRB assay; assay type: functional, cell-based; details: UACC-62, 48 h
CAKI-1 = test: Inhibition of cell growth in human CAKI-1 cells incubated for 48 hrs by SRB assay; assay type: functional, cell-based; details: CAKI-1, 48 h
T47D [17] = test: Inhibition of cell growth in human T47D cells incubated for 48 hrs by SRB assay; assay type: functional, cell-based
K562 [18] = test: Induction of DNA damage in human K562 cells assessed as tail DNA level at 70 nM incubated for 24 hrs by comet assay (reference value: 0.5 to 0.6 %); assay type: functional
K562 [19] = test: Induction of DNA damage in human K562 cells assessed as tail DNA level at 700 nM incubated for 24 hrs by comet assay (reference value: 0.5 to 0.6 %); assay type: functional
K562 [20] = test: Induction of DNA damage in human K562 cells assessed as olive tail moment level at 70 nM incubated for 24 hrs by comet assay (reference value: 0.2); assay type: functional
K562 [21] = test: Induction of DNA damage in human K562 cells assessed as olive tail moment level at 700 nM incubated for 24 hrs by comet assay (reference value: 0.2); assay type: functional
K562 [22] = test: Induction of DNA damage in human K562 cells assessed as fold increase in tail DNA level at 70 to 700 nM incubated for 24 hrs by comet assay relative to control; assay type: functional; details: dose 70-700 nM
K562 [23] = test: Induction of DNA damage in human K562 cells assessed as fold increase in olive tail moment at 70 to 700 nM incubated for 24 hrs by comet assay relative to control; assay type: functional; details: dose 70-700 nM
K562 [24] = test: Induction of pro-apoptotic morphological changes in human K562 cells assessed as cell shrinkage at 700 nM incubated for 24 hrs by Hoescht-33342 staining based analysis; assay type: functional
K562 [25] = test: Induction of pro-apoptotic morphological changes in human K562 cells assessed as nucleus fragmentation at 700 nM incubated for 24 hrs by Hoescht-33342 staining based analysis; assay type: functional, cell-based
K562 [26] = test: Induction of pro-apoptotic morphological changes in human K562 cells assessed as formation of cytoplasmic blebs at 700 nM incubated for 24 hrs by Hoescht-33342 staining based analysis; assay type: functional, cell-based
K562 [27] = test: Induction of pro-apoptotic morphological changes in human K562 cells assessed as formation of apoptotic bodies at 700 nM incubated for 24 hrs by Hoescht-33342 staining based analysis; assay type: functional, cell-based
K562 [28] = test: Induction of pro-apoptotic morphological changes in human K562 cells at 70 nM incubated for 24 hrs by Hoescht-33342 staining based analysis; assay type: functional, cell-based

Structure (SMILES): O=C(Nc1ncc(Cc2ccc(F)cc2)s1)c1ccc(-n2cnnn2)cc1
- growth at 10 µM (K562 [1]): 23.2%
- growth at 10 µM (NCI-H460 [2]): 25.5%
- growth at 10 µM (LOX IMVI [3]): 26.3%
- growth at 10 µM (M14 [4]): 34.3%
- growth at 10 µM (UACC-62 [5]): 19.2%
- growth at 10 µM (MCF7): 34.4%
- growth at 10 µM (NCI-H522): 36.5%
- growth at 10 µM (SF-295): 25.9%
- growth at 10 µM (SK-MEL-5): 10.6%
- growth at 10 µM (UACC-257): 32%
- growth at 10 µM (T47D [6]): 23.2%
- IC50 (K562 [7]): 700 nM
- IC50 at 72 h [8]: > 100000 nM
- IC50 at 72 h [9]: > 100000 nM
- IC50 at 72 h [10]: 70700 nM
- Ratio IC50 [11]: 101
- IC50 (K562 [12]): 56.4 nM
- IC50 (NCI-H460 [13]): 993 nM
- IC50 (HCT-15): 347 nM
- IC50 (KM12): 927 nM
- IC50 (SW-620): 118 nM
- IC50 (LOX IMVI [14]): 206 nM
- IC50 (M14 [15]): 261 nM
- IC50 (UACC-62 [16]): 56.9 nM
- IC50 (CAKI-1): 772 nM
- IC50 (T47D [17]): 896 nM
- Activity (K562 [18]): 1.1%
- Activity (K562 [19]): 5.1%
- Activity (K562 [20]): 0.5
- Activity (K562 [21]): 1.4
- fold change (FC) (K562 [22]): 2
- fold change (FC) (K562 [23]): 2
- Activity (K562 [24]): Active
- Activity (K562 [25]): Active
- Activity (K562 [26]): Active
- Activity (K562 [27]): Active
- Activity (K562 [28]): inactive
